Reference: paper PMC9304322, “Targeting retinoic acid receptor alpha-corepressor interaction activates chaperone-mediated autophagy and protects against retinal degeneration” (Nature Communications, 2022)
Values joined by “and” are separate entries in the source; they are usually repeats but may differ in a detail not shown here. Equal entries are not always repeated.

Experiments:
Format in all cases: cell-based, mouse
[1] = test system: NIH3T3; experiment: Intracellular proteolysis of long half-life proteins
Experimental: Confluent cells were labelled with [^3H]leucine (2μCi/ml) (NEN-PerkinElmer Life Sciences) for 48 h and then extensively washed and maintained in medium with an excess of unlabeled leucine. Proteolysis was calculated from aliquots of the medium taken at different times and precipitated in trichloroacetic acid, as the amount of acid-precipitable radioactivity transformed to acid-soluble radioactivity at each time. Where indicated cell were treated during the chase with […] leupeptin (Sigma, #108975) and […] NH4Cl (to determine lysosomal degradation) or with 100 μm MRT 68921 dihydrochloride (Tocris, #5780) (to determine macroautophagy degradation).

[2] = test system: CMA network components in NIH3T3 cells; experiment: qPCR of CMA network components and CMA activation score; set-up: LAMP2A mRNA level / HSP90AB1 mRNA level / HSP40 mRNA level / RAC1 mRNA level / AKT1 mRNA level / AKT2 mRNA level / CTSA mRNA level / NFATC1 mRNA level / HSC70 mRNA level / NCOR1 mRNA level / NFE2L2 mRNA level / RAB11A mRNA level / RARa mRNA level / HSP90AA1 mRNA level / EEF1A1 mRNA level / RICTOR mRNA level: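 fold of untreated cells after 20 µM for 24 h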; key to CMA activation score: weighted (LAMP-2A ×2), directed (±1) average of CMA network expression; conditions: individual replicate values;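 as to AKT1 mRNA level: fold of untreated cells after 20 µM for 24 h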;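 as to AKT2 mRNA level: fold of untreated cells after 20 µM for 24 h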;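 as to CTSA mRNA level: fold of untreated cells after 20 µM for 24 h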;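 as to HSC70 mRNA level: fold of untreated cells after 20 µM for 24 h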;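 as to HSP40 mRNA level: fold of untreated cells after 20 µM for 24 h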;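 as to HSP90AA1 mRNA level: fold of untreated cells after 20 µM for 24 h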;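 as to HSP90AB1 mRNA level: fold of untreated cells after 20 µM for 24 h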;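 as to LAMP2A mRNA level: fold of untreated cells after 20 µM for 24 h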;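 as to NCOR1 mRNA level: fold of untreated cells after 20 µM for 24 h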;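 as to NFATC1 mRNA level: fold of untreated cells after 20 µM for 24 h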;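 as to NFE2L2 mRNA level: fold of untreated cells after 20 µM for 24 h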;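 as to PHLPP1 mRNA level: fold of untreated cells after 20 µM for 24 h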;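 as to RAB11A mRNA level: fold of untreated cells after 20 µM for 24 h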;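 as to RAC1 mRNA level: fold of untreated cells after 20 µM for 24 h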;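 as to RARa mRNA level: fold of untreated cells after 20 µM for 24 h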
Experimental: RNA was extracted from individual retinas or tissue sections (brain, liver). Total RNA from retinas was extracted using TRIzol Reagent (Invitrogen, # 15596-018), and reverse transcription was performed using the High-Capacity cDNA Reverse Transcription Kit (Applied Biosystems, # 4374966) according to the manufacturer’s instructions. Quantitative real-time PCR was performed in a Light Cycler 480 Instrument (Roche) with Taqman LightCycler 480 probes Master Mix (Roche, #4887301001) using Taqman assays (Life Technologies). For cells in culture, RNA was extracted using RNeasy Plus Mini Kit (Qiagen, #74034), and reverse transcription was performed using Superscript III (Invitrogen, #18080051). Quantitative RT-PCR analysis were performed using Power SYBR Green PCR Master Mix (Applied Biosystems, #4368708) on a StepOne Plus Real-Time PCR System (Applied Biosystems). Mm01184405_m1 probe (Thermofisher) was used for rhodopsin and the sequence of all the other probes used for qPCR is included in Supplementary Table 2.
CMA index[14] was calculated using data set from[23]–[25]. Briefly, each element of the CMA network[13] has attributed a weight. As LAMP-2A is the rate-limiting component of CMA, it was given a weight of 2. Every other element received a weight of 1. Then, every element was attributed direction score that is +1 or −1 based on the known effect of a given element on CMA activity. The score was then calculated as the weighted/ directed average of expression counts of every element of the CMA network.

[3] = test system: neuroblastoma cell line N2a expressing the KFERQ-PS-Dendra reporter; experiment: CMA activity, KFERQ-PS-Dendra reporter in N2a cells; set-up: CMA activity, mean (Fig. S2a): unit not given here
Experimental: Cells were transduced with lentivirus carrying the KFERQ-PS-Dendra reporter as before. Cells were photoactivated by exposure to a 3.5 mA (current constant) light emitting diode (LED: Norlux, 405 nm) for 3 min and then plated in glass-bottom 96 well plates. At the desired times, cells were fixed with 4% PFA and imaged using high-content microscopy (Operetta system, Perkin Elmer). Images were quantified using the manufacturer’s software in a minimum of 1,200 cells in 9 independent fields per well. […] This was particularly important in the case of primary human cells where the efficiency of transduction was ~65%. To avoid confounding effects for drug-induced changes in cell volume or adherence to the plate that could bring a fraction of the cells per field outside of focus, we set a threshold to count only […] that have at least 1/10 of the average number of […] detected in the untreated wells for each cell type (3–4 puncta/cell in the case of NIH3T3 and N2a cells and 5 puncta/cell in primary human fibroblasts).

[4] = Fig. 2d (left), one sample t test

Question: Cc1ccc(C2=Nc3ccc(Cl)cc3OC2)cc1 [AR7, reference compound] was tested. Which “duration of the increase in degradation of long-lived proteins” value ([1]; NIH3T3, 10 μM) did it give?
Answer: The value was “sustained only for the first 12 h”.

Question: And the “Lysosomal proteolysis, Mean (Fig. S3c)” value ([1]; Time 6)?
Answer: Its value is 3.18.

Question: What about the “Lysosomal proteolysis, Mean (Fig. S3c)” value ([1]; Time 12) of the same compound?
Answer: Its value is 5.83.

Question: What about the “AKT1 mRNA level” value [2, 4] of the same compound?
Answer: Its value is 1.38 and 0.89 and 1.44 and 0.86 and 1.06 and 1.51 and 1.42.

Question: What about the “AKT2 mRNA level” value [2, 4] of the same compound?
Answer: Its value is 1.44 and 0.97 and 1.15 and 0.87 and 1.19 and 1.60 and 1.34.

Question: What about the “CTSA mRNA level” value [2, 4] of the same compound?
Answer: The value was 1.25 and 1.34 and 1.07 and 0.82 and 1.13 and 1.21 and 1.33.

Question: What about the “EEF1A1 mRNA level” value [2, 4] of the same compound?
Answer: Its value is 1.17 and 1.49 and 1.26 and 1.78 and 0.79 and 1.54.

Question: What about the “HSC70 mRNA level” value [2, 4] of the same compound?
Answer: Its value is 1.32 and 1.34 and 1.36 and 1.12 and 1.37 and 1.41.

Question: And the “HSP40 mRNA level” value [2, 4]?
Answer: The value was 0.98 and 1.05 and 1.10 and 0.85 and 0.99 and 0.72 and 1.06.

Question: What about the “HSP90AA1 mRNA level” value [2, 4] of the same compound?
Answer: Its value is 1.28 and 0.87 and 0.85 and 0.56 and 0.80 and 0.78 and 0.86.

Question: And the “HSP90AB1 mRNA level” value [2, 4]?
Answer: Its value is 0.93 and 0.89 and 0.92 and 0.63 and 0.94 and 0.80.

Question: And the “LAMP2A mRNA level” value [2, 4]?
Answer: Its value is 1.15 and 1.53 and 1.46 and 1.28 and 1.31 and 1.13 and 1.27.

Question: What about the “NCOR1 mRNA level” value [2, 4] of the same compound?
Answer: The value was 1.16 and 1.11 and 1.26 and 0.79 and 0.85 and 0.87 and 1.01.

Question: What about the “NFATC1 mRNA level” value [2, 4] of the same compound?
Answer: Its value is 1.04 and 0.72 and 1.34 and 0.83 and 1.03 and 1.25 and 1.28.

Question: What about the “NFE2L2 mRNA level” value [2, 4] of the same compound?
Answer: Its value is 1.81 and 0.87 and 0.79 and 0.50 and 0.68 and 0.86 and 1.01.

Question: And the “PHLPP1 mRNA level” value [2, 4]?
Answer: Its value is 1.42 and 1.17 and 1.27 and 2.72 and 1.10 and 1.18 and 1.28.

Question: And the “RAB11A mRNA level” value [2, 4]?
Answer: Its value is 1.10 and 1.22 and 1.00 and 0.72 and 0.93 and 1.01.

Question: What about the “RAC1 mRNA level” value [2, 4] of the same compound?
Answer: The value was 1.21 and 1.55 and 1.26 and 1.08 and 1.31 and 1.54 and 1.42.

Question: What about the “RARa mRNA level” value [2, 4] of the same compound?
Answer: Its value is 0.99 and 0.33 and 1.02 and 0.95 and 0.90 and 0.86.

Question: What about the “RICTOR mRNA level” value [2, 4] of the same compound?
Answer: Its value is 0.52 and 1.27 and 0.85 and 0.95 and 1.43.

Question: And the CMA activation score ([2]; Fig. 2d (right))?
Answer: The CMA activation score was -0.03086 and 0.1313 and 0.07179 and -0.1523.

Question: And the “CMA activity, mean relative to concentration 0 = 1 (Fig. S2b)” value ([3]; 12+12w, concentration 0.2)?
Answer: Its value is 0.9288.

Question: What about the “CMA activity, mean relative to concentration 0 = 1 (Fig. S2b)” value ([3]; 12+12w, concentration 2) of the same compound?
Answer: Its value is 0.9525.

Question: And the “CMA activity, mean relative to concentration 0 = 1 (Fig. S2b)” value ([3]; 12+12w, concentration 5)?
Answer: The value was 0.9471.

Question: What about the “CMA activity, mean relative to concentration 0 = 1 (Fig. S2b)” value ([3]; 12+12w, concentration 10) of the same compound?
Answer: Its value is 0.8786.

Question: And the “CMA activity, mean relative to concentration 0 = 1 (Fig. S2b)” value ([3]; 12+12w, concentration 20)?
Answer: Its value is 0.875.

Question: And the “CMA activity, mean relative to concentration 0 = 1 (Fig. S2b)” value ([3]; 12+12w, concentration 30)?
Answer: Its value is 0.9362.

Question: What about the “CMA activity, mean (Fig. S2a)” value ([3]; 12h, concentration 0.02) of the same compound?
Answer: The value was 5.372.

Question: And the “CMA activity, mean (Fig. S2a)” value ([3]; 12h, concentration 0.2)?
Answer: Its value is 5.3273.

Question: What about the “CMA activity, mean relative to concentration 0 = 1 (Fig. S2b)” value ([3]; 12h, concentration 0.2) of the same compound?
Answer: Its value is 1.02.

Question: What about the “CMA activity, mean (Fig. S2a)” value ([3]; 12h, concentration 2) of the same compound?
Answer: Its value is 5.394.

Question: And the “CMA activity, mean relative to concentration 0 = 1 (Fig. S2b)” value ([3]; 12h, concentration 2)?
Answer: Its value is 1.033.

Question: And the “CMA activity, mean (Fig. S2a)” value ([3]; 12h, concentration 5)?
Answer: The value was 6.224.

Question: What about the “CMA activity, mean relative to concentration 0 = 1 (Fig. S2b)” value ([3]; 12h, concentration 5) of the same compound?
Answer: Its value is 1.192.

Question: And the “CMA activity, mean (Fig. S2a)” value ([3]; 12h, concentration 10)?
Answer: The value was 5.944.

Question: What about the “CMA activity, mean relative to concentration 0 = 1 (Fig. S2b)” value ([3]; 12h, concentration 10) of the same compound?
Answer: Its value is 1.138.

Question: What about the “CMA activity, mean (Fig. S2a)” value ([3]; 12h, concentration 20) of the same compound?
Answer: Its value is 6.2128.

Question: What about the “CMA activity, mean relative to concentration 0 = 1 (Fig. S2b)” value ([3]; 12h, concentration 20) of the same compound?
Answer: Its value is 1.19.

Question: And the “CMA activity, mean (Fig. S2a)” value ([3]; 12h, concentration 30)?
Answer: Its value is 6.043.

Question: What about the “CMA activity, mean relative to concentration 0 = 1 (Fig. S2b)” value ([3]; 12h, concentration 30) of the same compound?
Answer: Its value is 1.157.

Question: And the “CMA activity, mean (Fig. S2a)” value ([3]; 12h, concentration 40)?
Answer: The value was 6.596.

Question: What about the “CMA activity, mean (Fig. S2a)” value ([3]; 12h, concentration 50) of the same compound?
Answer: The value was 6.394.

Question: And the “CMA activity, mean (Fig. S2a)” value ([3]; 12h, concentration 60)?
Answer: The value was 6.271.

Question: What about the “CMA activity, mean (Fig. S2a)” value ([3]; 24h, concentration 0.02) of the same compound?
Answer: Its value is 5.48.

Question: And the “CMA activity, mean (Fig. S2a)” value ([3]; 24h, concentration 0.2)?
Answer: Its value is 5.351.

Question: And the “CMA activity, mean relative to concentration 0 = 1 (Fig. S2b)” value ([3]; 24h, concentration 0.2)?
Answer: The value was 0.8724.

Question: What about the “CMA activity, mean (Fig. S2a)” value ([3]; 24h, concentration 2) of the same compound?
Answer: The value was 5.879.

Question: And the “CMA activity, mean relative to concentration 0 = 1 (Fig. S2b)” value ([3]; 24h, concentration 2)?
Answer: The value was 0.9586.

Question: And the “CMA activity, mean (Fig. S2a)” value ([3]; 24h, concentration 5)?
Answer: Its value is 6.0743.

Question: What about the “CMA activity, mean relative to concentration 0 = 1 (Fig. S2b)” value ([3]; 24h, concentration 5) of the same compound?
Answer: Its value is 0.9904.

Question: What about the “CMA activity, mean (Fig. S2a)” value ([3]; 24h, concentration 10) of the same compound?
Answer: Its value is 6.105.

Question: And the “CMA activity, mean relative to concentration 0 = 1 (Fig. S2b)” value ([3]; 24h, concentration 10)?
Answer: The value was 0.9953.

Question: And the “CMA activity, mean (Fig. S2a)” value ([3]; 24h, concentration 20)?
Answer: The value was 6.658.

Question: And the “CMA activity, mean relative to concentration 0 = 1 (Fig. S2b)” value ([3]; 24h, concentration 20)?
Answer: Its value is 1.086.

Question: What about the “CMA activity, mean (Fig. S2a)” value ([3]; 24h, concentration 30) of the same compound?
Answer: Its value is 7.455.

Question: What about the “CMA activity, mean relative to concentration 0 = 1 (Fig. S2b)” value ([3]; 24h, concentration 30) of the same compound?
Answer: The value was 1.2156.

Question: And the “CMA activity, mean (Fig. S2a)” value ([3]; 24h, concentration 40)?
Answer: Its value is 8.122.

Question: And the “CMA activity, mean (Fig. S2a)” value ([3]; 24h, concentration 50)?
Answer: The value was 8.426.

Question: And the “CMA activity, mean (Fig. S2a)” value ([3]; 24h, concentration 60)?
Answer: Its value is 8.941.
